This note sets out measurements from PMC2014795 (PLoS Pathogens, 2007).

As usually defined, the IC50 is the concentration needed to halve the response being measured. Low values mean inhibition by little substance, high ones a need for much substance.

The target in this assay is T1, HLA-DR1 (DRB1*0101) (Homo sapiens, UniProt P01903+P01911, A100R/D57E/F55L/F60I/F76Y/I96L/L162R/M171V/P40L/Q125E/R42F/V115G/Y59C).
T1 construct: the extracellular portion of HLA-DR1 was produced by expression of isolated subunits in Escherichia coli inclusion bodies; made in house
The experiment in a line: biochemical. It is filed as binding.

In turn, `CC(C)C[C@H](NC(=O)[C@H](Cc1ccc(O)cc1)NC(=O)[C@H](CCCNC(=N)N)NC(=O)CNC(=O)[C@H](CCC(=O)O)NC(=O)[C@H](CCCCN)NC(=O)[C@@H](NC(=O)[C@@H](N)CC(N)=O)[C@@H](C)O)C(=O)N[C@H](C(=O)N[C@@H](CC(C)C)C(=O)N[C@@H](CCCCN)C(=O)N[C@@H](C)C(=O)N[C@H](C(=O)N[C@@H](CCCCN)C(=O)N[C@H](C(=O)N[C@@H](CS)C(=O)N[C@@H](CC(=O)O)C(=O)N[C@H](C(=O)N[C@@H](CCCNC(=N)N)C(=O)N[C@H](C(=O)N[C@H](C(=O)O)C(C)C)[C@@H](C)O)C(C)C)C(C)C)C(C)C)C(C)C` [Peptide 301] displayed an IC50 of 190 ± 16 nM.
For the compound `CC[C@H](C)[C@H](NC(=O)[C@@H](NC(=O)[C@@H]1CCCN1C(=O)[C@H](CCC(=O)O)NC(=O)[C@H](CO)NC(=O)[C@H](CO)NC(=O)[C@H](CCSC)NC(=O)[C@H](Cc1ccc(O)cc1)NC(=O)[C@H](CCCNC(=N)N)NC(=O)[C@H](Cc1ccccc1)NC(=O)[C@@H](NC(=O)[C@@H](NC(=O)[C@H](CC(N)=O)NC(=O)[C@H](C)NC(=O)[C@@H](NC(=O)[C@@H](N)CCC(N)=O)[C@@H](C)O)C(C)C)C(C)C)[C@@H](C)CC)C(=O)N[C@@H](Cc1ccccc1)C(=O)NCC(=O)N[C@@H](CCC(=O)O)C(=O)N[C@@H](CO)C(=O)N[C@@H](CO)C(=O)O` [Peptide 302], it took 37 ± 10 nM to reach half-maximal inhibition (IC50).
Then `CC[C@H](C)[C@H](NC(=O)[C@H](C)NC(=O)[C@H](CCCNC(=N)N)NC(=O)[C@@H](NC(=O)[C@@H](NC(=O)[C@@H](NC(=O)[C@H](Cc1ccccc1)NC(=O)[C@H](Cc1c[nH]c2ccccc12)NC(=O)[C@H](Cc1ccccc1)NC(=O)[C@H](CO)NC(=O)[C@H](CC(N)=O)NC(=O)[C@@H]1CCCN1C(=O)[C@@H](N)CCCNC(=N)N)C(C)C)C(C)C)C(C)C)C(=O)N[C@@H](C)C(=O)N[C@@H](CO)C(=O)N[C@@H](CCSC)C(=O)N[C@H](C(=O)N[C@@H](CCSC)C(=O)N[C@@H](Cc1ccc(O)cc1)C(=O)N[C@@H](CC(C)C)C(=O)N[C@H](C(=O)O)C(C)C)[C@@H](C)CC` [Peptide 304], with 4000 nM; and `CC[C@H](C)[C@H](N)C(=O)N1CCC[C@H]1C(=O)N[C@@H](CC(C)C)C(=O)N[C@@H](CO)C(=O)N[C@@H](CCC(=O)O)C(=O)N[C@@H](CCSC)C(=O)N[C@H](C(=O)N[C@H](C(=O)N[C@@H](CCCCN)C(=O)N[C@@H](CC(C)C)C(=O)N[C@H](C(=O)N[C@@H](C)C(=O)N[C@H](C(=O)N[C@@H](CS)C(=O)N[C@@H](CCSC)C(=O)N[C@@H](CCCCN)C(=O)N[C@@H](CS)C(=O)N[C@@H](Cc1ccccc1)C(=O)N[C@@H](CCCCN)C(=O)N[C@@H](CCC(=O)O)C(=O)N[C@@H](C)C(=O)O)C(C)C)[C@@H](C)O)C(C)C)C(C)C` [Peptide 305], with 29 ± 10 nM; and `CC[C@H](C)[C@H](N)C(=O)N[C@@H](CC(C)C)C(=O)N[C@@H](CCCCN)C(=O)N[C@@H](CO)C(=O)N[C@@H](CC(C)C)C(=O)NCC(=O)N[C@@H](Cc1ccccc1)C(=O)N[C@@H](CCCCN)C(=O)N[C@H](C(=O)N[C@@H](CC(C)C)C(=O)N[C@@H](CC(=O)O)C(=O)NCC(=O)N[C@@H](CO)C(=O)N1CCC[C@H]1C(=O)N[C@H](C(=O)N[C@@H](CO)C(=O)N[C@@H](CC(C)C)C(=O)N[C@@H](CCCNC(=N)N)C(=O)N[C@@H](Cc1ccc(O)cc1)C(=O)NCC(=O)N[C@@H](CO)C(=O)O)[C@@H](C)CC)C(C)C` [Peptide 306], with 5 ± 1 nM.
As to `CC[C@H](C)[C@H](NC(=O)CNC(=O)[C@@H](NC(=O)[C@H](CC(C)C)NC(=O)[C@H](CCCCN)NC(=O)[C@H](CC(C)C)NC(=O)[C@H](Cc1ccc(O)cc1)NC(=O)[C@H](CCC(=O)O)NC(=O)[C@H](CCCNC(=N)N)NC(=O)[C@@H](NC(=O)[C@H](CO)NC(=O)[C@@H](NC(=O)[C@@H](N)CC(N)=O)[C@@H](C)O)[C@@H](C)O)[C@@H](C)CC)C(=O)N[C@H](C(=O)N[C@@H](C)C(=O)N[C@H](C(=O)N[C@@H](CCSC)C(=O)N[C@@H](Cc1ccccc1)C(=O)N[C@@H](C)C(=O)N[C@H](C(=O)N[C@@H](Cc1ccc(O)cc1)C(=O)O)[C@@H](C)O)[C@@H](C)CC)[C@@H](C)O` [Peptide 308], half-maximal inhibition (IC50) was put at 23 ± 5 nM. This IC50 is about 4.6-fold higher than that of the compound before.
Compound `CC[C@H](C)[C@H](NC(=O)[C@@H](NC(=O)[C@H](CC(C)C)NC(=O)[C@H](C)NC(=O)[C@@H](NC(=O)[C@H](CC(C)C)NC(=O)[C@H](C)NC(=O)[C@H](CC(C)C)NC(=O)[C@H](CC(C)C)NC(=O)[C@H](CCSC)NC(=O)[C@H](CCC(N)=O)NC(=O)[C@H](Cc1ccc(O)cc1)NC(=O)[C@H](CC(N)=O)NC(=O)[C@H](CCCNC(=N)N)NC(=O)[C@H](CO)NC(=O)[C@@H](NC(=O)[C@H](CC(C)C)NC(=O)[C@@H](N)CCCNC(=N)N)C(C)C)C(C)C)C(C)C)C(=O)N[C@H](C(=O)N[C@@H](CC(C)C)C(=O)N[C@H](C(=O)O)[C@@H](C)O)[C@@H](C)O` [Peptide 310] showed an IC50 of 660 ± 25 nM.
The compound `CC[C@H](C)[C@H](NC(=O)CNC(=O)[C@H](CO)NC(=O)[C@H](CCC(N)=O)NC(=O)[C@H](CC(N)=O)NC(=O)[C@@H](NC(=O)[C@H](Cc1ccccc1)NC(=O)[C@@H]1CCCN1C(=O)[C@H](CCC(=O)O)NC(=O)[C@H](Cc1ccccc1)NC(=O)[C@@H](NC(=O)[C@H](CC(C)C)NC(=O)[C@@H](N)CS)C(C)C)C(C)C)C(=O)N[C@@H](CCC(=O)O)C(=O)N[C@H](C(=O)N[C@@H](CC(C)C)C(=O)N[C@@H](CC(C)C)C(=O)N[C@@H](CC(C)C)C(=O)N[C@@H](Cc1ccc(O)cc1)C(=O)N[C@@H](Cc1ccccc1)C(=O)N[C@@H](CCCCN)C(=O)O)[C@@H](C)CC` [Peptide 311] gave an IC50 of 3400 nM.
In the case of `CC[C@H](C)[C@H](NC(=O)[C@H](CCSC)NC(=O)[C@H](Cc1ccc(O)cc1)NC(=O)[C@H](Cc1ccccc1)NC(=O)[C@H](CCC(N)=O)NC(=O)[C@@H](NC(=O)CNC(=O)[C@@H](NC(=O)CN)[C@@H](C)O)C(C)C)C(=O)N[C@H](C(=O)N[C@H](C(=O)NCC(=O)N[C@H](C(=O)N[C@H](C(=O)N[C@H](C(=O)N[C@@H](CC(C)C)C(=O)N[C@@H](C)C(=O)N[C@@H](C)C(=O)N[C@@H](CC(C)C)C(=O)N[C@@H](Cc1ccccc1)C(=O)N[C@@H](CCSC)C(=O)O)[C@@H](C)CC)[C@@H](C)CC)C(C)C)[C@@H](C)CC)C(C)C` [Peptide 312], the IC50 worked out at 620 ± 110 nM. This IC50 is about 5.5-fold lower than that of the compound before.
As to `CC[C@H](C)[C@H](NC(=O)[C@H](Cc1ccccc1)NC(=O)[C@H](CCC(=O)O)NC(=O)[C@H](CC(N)=O)NC(=O)[C@@H](N)[C@@H](C)O)C(=O)N[C@@H](CO)C(=O)N[C@@H](Cc1ccccc1)C(=O)N[C@@H](CC(C)C)C(=O)N[C@@H](CC(C)C)C(=O)N[C@@H](CC(C)C)C(=O)N[C@H](C(=O)N[C@@H](CO)C(=O)N[C@H](C(=O)N1CCC[C@H]1C(=O)N[C@H](C(=O)N[C@@H](Cc1ccc(O)cc1)C(=O)N[C@@H](CC(N)=O)C(=O)N[C@H](C(=O)N[C@@H](CC(C)C)C(=O)N[C@@H](Cc1ccccc1)C(=O)N[C@@H](Cc1c[nH]c2ccccc12)C(=O)O)[C@@H](C)CC)[C@@H](C)CC)[C@@H](C)CC)[C@@H](C)O` [Peptide 313], the midpoint of inhibition, the IC50, lay at 510 ± 110 nM.
